How the values were obtained:
SNK-6 (IL-2 2.5 ng/mL) [1] = experiment: drug sensitivity score (DSS) (DSS units); higher = more sensitive; extreme values may be limits of the assay; conditions: 72 h
KAI3 (IL-2 2.5 ng/mL) [2] = experiment: as above; conditions: 72 h
NK-92 (IL-2 2.5 ng/mL) [3] = experiment: as above; conditions: 72 h
[4] = tested on: normal primary NK cells, pool 1 (3 donors), resting (IL-2 0 ng/mL); experiment: as above; conditions: 72 h
NKL (IL-2 2.5 ng/mL) [5] = experiment: as above; conditions: 72 h
DERL-7 (IL-2 2.5 ng/mL) [6] = experiment: as above; conditions: 72 h
IMC-1 (IL-2 20 ng/mL) [7] = experiment: as above; conditions: 72 h
YT (IL-2 2.5 ng/mL) [8] = experiment: as above; conditions: 72 h
[9] = tested on: normal primary NK cells, pool 1 (3 donors) (IL-2 2.5 ng/mL); experiment: as above; conditions: 72 h
KHYG-1 (IL-2 2.5 ng/mL) [10] = experiment: as above; conditions: 72 h
NK-YS (IL-2 2.5 ng/mL) [11] = experiment: as above; conditions: 72 h
[12] = tested on: normal primary NK cells, pool 2 (3 donors) (IL-2 2.5 ng/mL); experiment: as above; conditions: 72 h
[13] = tested on: normal primary NK cells, pool 3 (3 donors) (IL-2 2.5 ng/mL); experiment: as above; conditions: 72 h
[14] = tested on: normal NK cells expanded with K562-aAPC; experiment: as above; conditions: 72 h; IL-2 2.5 ng/mL
Procedure: (§1)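 Drug sensitivity and resistance testing on K562-aAPC-expanded normal NK cells: 5 concentrations (10-fold steps over a 10,000-fold range), 72 h at 37 °C, viability by CellTiter-Glo normalised to DMSO and benzethonium chloride controls; DSS from the fitted curve.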

[15] = tested on: normal NK cells expanded with K562-aAPC; experiment: percent inhibition of viability; higher = more inhibition; conditions: 72 h, IL-2 2.5 ng/mL
Procedure: as §1

SNK-6 (IL-2 2.5 ng/mL) [16] = experiment: as above; conditions: 72 h
KAI3 (IL-2 2.5 ng/mL) [17] = experiment: as above; conditions: 72 h
NK-92 (IL-2 2.5 ng/mL) [18] = experiment: as above; conditions: 72 h
[19] = tested on: normal primary NK cells, pool 1 (3 donors), resting (IL-2 0 ng/mL); experiment: as above; conditions: 72 h
NKL (IL-2 2.5 ng/mL) [20] = experiment: as above; conditions: 72 h
DERL-7 (IL-2 2.5 ng/mL) [21] = experiment: as above; conditions: 72 h
IMC-1 (IL-2 20 ng/mL) [22] = experiment: as above; conditions: 72 h
YT (IL-2 2.5 ng/mL) [23] = experiment: as above; conditions: 72 h
[24] = tested on: normal primary NK cells, pool 1 (3 donors) (IL-2 2.5 ng/mL); experiment: as above; conditions: 72 h
KHYG-1 (IL-2 2.5 ng/mL) [25] = experiment: as above; conditions: 72 h
NK-YS (IL-2 2.5 ng/mL) [26] = experiment: as above; conditions: 72 h
[27] = tested on: normal primary NK cells, pool 2 (3 donors) (IL-2 2.5 ng/mL); experiment: as above; conditions: 72 h
[28] = tested on: normal primary NK cells, pool 3 (3 donors) (IL-2 2.5 ng/mL); experiment: as above; conditions: 72 h

N[C@@H]1CCCN(c2c(/C=C3\SC(=O)NC3=O)cccc2-c2ccccc2)C1 [AZD1208] (max concentration tested 10000 nM)
Conditions	drug sensitivity score
DERL-7 (IL-2 2.5 ng/mL) [6]	9.28
IMC-1 (IL-2 20 ng/mL) [7]	0
KAI3 (IL-2 2.5 ng/mL) [2]	5.48
KHYG-1 (IL-2 2.5 ng/mL) [10]	1.82
NK-92 (IL-2 2.5 ng/mL) [3]	0
NK-YS (IL-2 2.5 ng/mL) [11]	2.84
NKL (IL-2 2.5 ng/mL) [5]	7.1
SNK-6 (IL-2 2.5 ng/mL) [1]	0.26
YT (IL-2 2.5 ng/mL) [8]	0
[4]	6.52
[9]	3.28
[12]	1.86
[13]	0.17
[14]	5.29

percent inhibition of viability [%]
Conditions	1 nM	10 nM	100 nM	1000 nM	10000 nM
DERL-7 (IL-2 2.5 ng/mL) [21]	1.77	2.67	16.4	40.2	56.5
IMC-1 (IL-2 20 ng/mL) [22]	-4.38	-1.65	-10.7	-5.11	-8.15
KAI3 (IL-2 2.5 ng/mL) [17]	-0.84	0.89	7.33	28.1	34.3
KHYG-1 (IL-2 2.5 ng/mL) [25]	-4.34	-1.4	1.04	10.7	23.3
NK-92 (IL-2 2.5 ng/mL) [18]	-9.08	-8.5	-4.31	0.29	9
NK-YS (IL-2 2.5 ng/mL) [26]	-4.63	0.2	2.23	14.4	31.6
NKL (IL-2 2.5 ng/mL) [20]	-10.7	-16.5	4.37	35.7	49.5
SNK-6 (IL-2 2.5 ng/mL) [16]	-0.39	4.45	-2.55	5.71	12
YT (IL-2 2.5 ng/mL) [23]	-7.46	-4.31	-0.8	3.09	7.52
[15]	-4.31	-0.72	10.2	26	28.9
[19]	-10.1	0.65	23.9	23.6	23
[24]	-8.45	-3.78	9.24	17.3	18.6
[27]	-5.92	-0.84	8.9	12.8	19.5
[28]	-9.02	-6.59	-2.09	5.05	11.5

O=C(NOCC1CC1)c1ccc(F)c(F)c1Nc1ccc(I)cc1Cl (max concentration tested 10000 nM)
Conditions	drug sensitivity score
DERL-7 (IL-2 2.5 ng/mL) [6]	7.6
IMC-1 (IL-2 20 ng/mL) [7]	4.87
KAI3 (IL-2 2.5 ng/mL) [2]	11.1
KHYG-1 (IL-2 2.5 ng/mL) [10]	9.71
NK-92 (IL-2 2.5 ng/mL) [3]	5.23
NK-YS (IL-2 2.5 ng/mL) [11]	5.39
NKL (IL-2 2.5 ng/mL) [5]	16.6
SNK-6 (IL-2 2.5 ng/mL) [1]	4.38
YT (IL-2 2.5 ng/mL) [8]	6.98
[4]	3.64
[9]	3.11
[12]	1.26
[13]	0.13
[14]	2.2

percent inhibition of viability [%]
Conditions	1 nM	10 nM	100 nM	1000 nM	10000 nM
DERL-7 (IL-2 2.5 ng/mL) [21]	2.61	5.1	12.3	29.5	78
IMC-1 (IL-2 20 ng/mL) [22]	2.83	1.66	4.76	7.54	65.8
KAI3 (IL-2 2.5 ng/mL) [17]	15	14.8	26.2	27.5	80.7
KHYG-1 (IL-2 2.5 ng/mL) [25]	2.03	1.47	16.1	39	82.4
NK-92 (IL-2 2.5 ng/mL) [18]	2.8	6.04	-10.5	-0.9	95.2
NK-YS (IL-2 2.5 ng/mL) [26]	3.04	1.78	6.53	13.3	59.9
NKL (IL-2 2.5 ng/mL) [20]	9.41	19	33.2	57.9	83.2
SNK-6 (IL-2 2.5 ng/mL) [16]	-8.27	-11.4	-27.2	-19.6	97.3
YT (IL-2 2.5 ng/mL) [23]	1.25	1.46	5.39	14.5	82.6
[15]	-3.45	-0.57	-0.04	3.29	35.4
[19]	-5.53	0.69	6.91	8.17	44.4
[24]	-7.14	-7.1	14.2	13	17.1
[27]	-2.72	-4.8	-4.96	4.5	21
[28]	-3.37	0.57	-3.93	-0.21	13.6

Cc1cc(Nc2cc(N3CCN(C)CC3)nc(Sc3ccc(NC(=O)C4CC4)cc3)n2)n[nH]1 [Tozasertib] (max concentration tested 10000 nM)
Conditions	drug sensitivity score
DERL-7 (IL-2 2.5 ng/mL) [6]	23.6
IMC-1 (IL-2 20 ng/mL) [7]	17.4
KAI3 (IL-2 2.5 ng/mL) [2]	11.6
KHYG-1 (IL-2 2.5 ng/mL) [10]	16.6
NK-92 (IL-2 2.5 ng/mL) [3]	11.4
NK-YS (IL-2 2.5 ng/mL) [11]	19.2
NKL (IL-2 2.5 ng/mL) [5]	2.42
SNK-6 (IL-2 2.5 ng/mL) [1]	20.9
YT (IL-2 2.5 ng/mL) [8]	5.97
[4]	0.14
[9]	3.05
[12]	2.02
[13]	0.53
[14]	9.96

percent inhibition of viability [%]
Conditions	1 nM	10 nM	100 nM	1000 nM	10000 nM
DERL-7 (IL-2 2.5 ng/mL) [21]	3.54	-3.04	72.5	62	82
IMC-1 (IL-2 20 ng/mL) [22]	-4.29	1.42	24	78	98
KAI3 (IL-2 2.5 ng/mL) [17]	-4.42	3.12	20.6	48.2	71.8
KHYG-1 (IL-2 2.5 ng/mL) [25]	-4.48	2.48	32.5	67.5	85.3
NK-92 (IL-2 2.5 ng/mL) [18]	-7.92	-11.5	9.53	52.9	83.8
NK-YS (IL-2 2.5 ng/mL) [26]	-6.33	0.35	56.9	67.3	60.3
NKL (IL-2 2.5 ng/mL) [20]	-9.16	-8.33	-3.2	4.79	34.7
SNK-6 (IL-2 2.5 ng/mL) [16]	-3.9	3.63	58.1	74.3	61.7
YT (IL-2 2.5 ng/mL) [23]	-3.46	-2.16	13.1	25.8	47.4
[15]	-7.6	-9.83	27.1	35.3	38.2
[19]	2.84	-2.46	-18	-4.6	15.2
[24]	-7.78	-12.4	-6.71	5.08	43.4
[27]	-9.84	-5.4	-5.23	-0.34	41.1
[28]	-7.32	-4.94	0.04	-0.07	19.2

Source: the supplement of paper PMC5908809
